Calls of active or inactive are those of the source. The rule behind the calls is not given here.
Columns and labels:
[1] = Lipophilicity, log P of the compound; format: physicochemical; conditions: octanol/water
[2] = system: Mus musculus; assay: Effect on abdominal fat content in BKS db/db mouse assessed as reduction in abdominal fat ratio at 100 mg/kg/day for 4 weeks; format: functional, organism-based
[3] = system: Mus musculus; assay: Antihyperglycemic activity in BKS db/db mouse assessed as reduction in blood glucose level at 100 mg/kg/day for 4 weeks by glucometric analysis; format: functional, organism-based
[4] = system: Mus musculus; assay: Toxicity in BKS db/db mouse assessed as effect on water intake at 100 mg/kg/day up to 4 weeks; format: organism-based; conditions: in vivo, 672 h
[5] = system: Mus musculus; assay: Toxicity in BKS db/db mouse assessed as effect on body weight at 100 mg/kg/day up to 4 weeks; format: organism-based; conditions: in vivo, 672 h

| SMILES | logP [1] | further results |
| --- | --- | --- |
| CC#CCn1c(N2CCC[C@@H](N)C2)cc(=O)n(Cc2c(Br)c(Br)c(OC)c(OC)c2Br)c1=O | 4.04 |  |
| COc1cc(Cn2c(=O)cc(N3CCC[C@@H](N)C3)n(Cc3cc(F)ccc3C#N)c2=O)cc(Br)c1OC | 3.49 |  |
| CC#CCn1c(N2CCC[C@@H](N)C2)cc(=O)n(CC)c1=O | 0.41 |  |
| COc1cc(Cn2c(=O)cc(N3CCC[C@@H](N)C3)n(Cc3cc(F)ccc3C#N)c2=O)c(Br)c(Br)c1OC | 4.32 |  |
| CC#CCn1c(N2CCC[C@@H](N)C2)cc(=O)n(CCC)c1=O | 0.9 |  |
| CC#CCn1c(N2CCC[C@@H](N)C2)cc(=O)n(Cc2cc(C)cc(C)c2)c1=O | 2.78 |  |
| CC#CCn1c(N2CCC[C@@H](N)C2)cc(=O)n(CCCCCCCCCC)c1=O | 3.82 |  |
| CN(C)C(=N)NC(=N)N |  | Activity [2]: inactive; Activity [3]: Active |
| CC#CCn1c(N2CCC[C@@H](N)C2)cc(=O)n(Cc2cc(OC)c(OC)c(Br)c2Br)c1=O | 3.21 |  |
| COc1c(Br)c(Br)c(Cn2c(=O)cc(N3CCC[C@@H](N)C3)n(Cc3cc(F)ccc3C#N)c2=O)c(Br)c1OC | 5.15 |  |
| COc1ccc(Cn2c(=O)cc(N3CCC[C@@H](N)C3)n(Cc3cc(F)ccc3C#N)c2=O)cc1OC [listing 1 of 2 here] | 2.66 |  |
| CN(C)C(=N)N=C(N)N [METFORMIN] |  | Activity [4]: Toxic; Activity [5]: Non-Toxic |
| Cc1cc(C)cc(Cn2c(=O)cc(N3CCC[C@@H](N)C3)n(Cc3cc(F)ccc3C#N)c2=O)c1 | 3.89 |  |
| CC#CCn1c(N2CCC[C@@H](N)C2)cc(=O)n(CCCCCC)c1=O | 2.15 |  |
| CC#CCn1c(N2CCC[C@@H](N)C2)cc(=O)n(Cc2ccc(OC)c(OC)c2)c1=O | 1.55 |  |
| COc1ccc(Cn2c(=O)cc(N3CCC[C@@H](N)C3)n(Cc3cc(F)ccc3C#N)c2=O)cc1OC.O=C(O)CCC(=O)O |  | Activity [4]: Toxic; Activity [5]: Non-Toxic |
| CC#CCn1c(N2CCC[C@@H](N)C2)cc(=O)n(Cc2cc(F)cc(F)c2)c1=O | 2.12 |  |
| COc1ccc(Cn2c(=O)cc(N3CCC[C@@H](N)C3)n(Cc3cc(F)ccc3C#N)c2=O)cc1OC [listing 2 of 2 here] |  | Activity [2]: inactive; Activity [3]: Active |
| N#Cc1ccc(F)cc1Cn1c(N2CCC[C@@H](N)C2)cc(=O)n(Cc2cc(F)cc(F)c2)c1=O | 3.23 |  |
| CCCCCCn1c(=O)cc(N2CCC[C@@H](N)C2)n(Cc2cc(F)ccc2C#N)c1=O | 3.26 |  |
| CCCCCCCCCCn1c(=O)cc(N2CCC[C@@H](N)C2)n(Cc2cc(F)ccc2C#N)c1=O | 4.93 |  |
| CC#CCn1c(N2CCC[C@@H](N)C2)cc(=O)n(Cc2cc(Br)c(OC)c(OC)c2)c1=O | 2.38 |  |
